# Source: patent US5401768A, “2,5,6,7-tetranor-4,8-inter-m-phenylene PGI2, derivative, manufacturing process thereof and its use” (Toray Industries, Inc., priority 1987, dated 1995)
# Read-outs that look alike come from different tables or passages of the source.
# Columns and labels:
# [1] = tested on: gastric acid secretion; assay: Gastric acid secretion-inhibiting action by pylorus ligation (Shay's method); type: in vivo; settings: Rattus norvegicus, injected into duodenum, 5 hours, 5 animals in a group
# Experimental: Gastric acid secretion-inhibiting action by pylorus ligation
# According to the Shay's method (Gastroeuterology 5, 43 (1945)), median section was performed on abdomen of the rat under ether anesthesia and pylorus was ligated with thread. At the same time, the compound was injected into duodenum and then the incision was closed. After 5 hours, the abdomen was incised again and whole stomach was removed after ligating esophagus. The great curvature of the stomack was incised and the content was transferred to a graduated centrifuge tube. After centrifugation at 3000 rpm for 10 minutes, the volume of the gastric juice was measured. A part of the supernatant was sampled and was titrated with 0.1N NaOH until the pH became 7 using pH star (commercially available from Radio Meter Co., Ltd.).
# [2] = tested on: gastric acid secretion; assay: Gastric acid secretion-inhibiting action (pentagastrin-stimulated, perfused stomach); type: in vivo, Male SD rat; settings: PGE2 = 1; pentagastrin 0.05 μg/kg/min; femoral vein injection; area under pH curve
# Experimental: Gastric acid secretion-inhibiting action
# Male SD rat was incised in the abdomen under urethane anesthesia to open a hole at lumen of stomach. A double cannula was inserted from the hole and physiological saline was perfused in the stomack. The gastric acid flowed out was monitored by a pH meter (M. Chosh, H. Schild Br.J. Pharmacol 13, 54 (1958)). When the pH of the gastric acid was stabilized to about 4 after stimulation with continuous injection of pentagastrin at a rate of 0.05 μg/kg/min, the compound was injected through the femoral vein. As an index of the gastric acid secretion-inhibiting effect was measured using area enclosed by the curve from the point at which the pH started to increase by the gastric acid secretion-inhibiting effect to the point at which the pH is come back to the baseline. The relative effectiveness of gastric acid secretion-inhibiting effect of a compound was expressed when the value of PGE2 is 1, and the effectiveness of each compound was compared.
# [3] = tested on: ulcer index (corpus of stomack); assay: Cytoprotection (0.2N NaOH-induced gastric lesions, oral compound); type: in vivo; settings: 30 minutes before oral 0.2N NaOH, read-out: ED50 (dose by which the ulcer index decreased to 50% of control)
# Experimental: According to the method by A. Robert (Gartroerterolegy, 77(3), 443 (1979)), 30 minutes after oral administration of the compound, 0.2N NaOH was administered orally to the animals. After an hour, the animal was sacrified by chloroform anesthesia and the stomack was removed and fixed in 5% formalin solution. After fixation, the stomack was cut along the great curvature. A total length of blooding spot appearing on the corpus of stomack was measured and served as the ulcer index. When the ulcer index of the control group is taken as 100%, the dose of the compound by which the ulcer index decreased to 50% is designated as ED50.
# [4] = tested on: platelet aggregation; assay: Platelet aggregation-inhibiting action (ADP-induced, platelet-rich plasma); type: cell-based; settings: ADP 10 μM, compound added 1 minute before ADP, human PRP, read-out: IC50 (concentration which inhibits 50% platelet aggregation)
# Experimental: Blood taken from human median cubital vein was centrifuged at 800 rpm for 10 minutes and the upper part was collected as platelet-rich plasma (PRP). PRP was put into small test tubes and […] (ADP) was added thereto (final concentration of 10 μM) to induce platelet aggregation. The degree of platelet aggregation was measured as the change of turbidity determined by using a platelet aggregation measuring apparatus (commercially available from Rikadenki Co., Ltd., Tokyo). The compound was added 1 minute before the addition of ADP. The concentration which inhibits 50% aggregation was designated as IC50.
# [5] = tested on: pressure of carotid arteries; assay: Hypotensive effect (carotid artery pressure, chloralose anesthesia); type: in vivo, Wistar rat (male); settings: Rattus norvegicus, femoral catheter injection, read-out: ED25 mmHg (dose which may reduce the blood pressure by 25 mmHg)
# Experimental: Under chloralose anesthesia, catheter was inserted to carotid arteries of Wistar rat (male). The catheter was connected to a polygraph via pressure transducer to measure the pressure of carotid arteries. The compound was injected via catheter connected to a femoral articles. The dose which may reduce the blood pressure by 25 mmHg from the dose-response curve was designated as ED25. The effectiveness of each compound was compared based on it.
# [6] = level of the acid (mEq/ml), read-out: ED50 Gastric Acid
# [7] = volume decreased to 50% of control, read-out: ED50 Volume of Gastric Juice
SMILES,IC50 [4] [ng/mL],"ED50 [1, 6] [mg/kg]","ED50 [1, 7] [mg/kg]",Relative Effectiveness to PGE2 (gastric acid secretion inhibition) [2],ED50 [3] [mg/kg],ED (25 mmHg) [5] [mg/kg]
"CCCCC(C)(C)[C@H](O)/C=C/[C@@H]1[C@H]2c3cccc(CCC(=O)O)c3O[C@H]2C[C@H]1O (relative stereo) [Compound 48, 16,16-dimethyl-2,5,6,7-tetranor-4,8-inter-m-phenylene PGI2]",1000,0.63,6.3,,0.0023,0.00084
"CCCOC[C@H](O)/C=C/[C@@H]1[C@H]2c3cccc(CCC(=O)O)c3O[C@H]2C[C@H]1O (relative stereo) [Compound 101, 2,5,6,7-tetranor-17-oxa-4,8-inter-m-phenylene PGI2]",,0.9,1.4,4.9,0.0789,0.0015
"CCCCC(C)[C@H](O)/C=C/[C@@H]1[C@H]2c3cccc(CCC(=O)O)c3O[C@H]2C[C@H]1O (some centres unmarked) [Compound 51, 16-methyl-2,5,6,7-tetranor-4,8-inter-m-phenylene PGI2]",,0.21,0.36,35,0.00046,0.00011
"CCCCCC[C@H](O)/C=C/[C@@H]1[C@H]2c3cccc(CCC(=O)O)c3O[C@H]2C[C@H]1O (relative stereo) [Compound 45, 20a-homo-2,5,6,7-tetranor-4,8-inter-m-phenylene PGI2]",,,,3.5,,
"CC(C)(Oc1ccccc1)[C@H](O)/C=C/[C@@H]1[C@H]2c3cccc(CCC(=O)O)c3O[C@H]2C[C@H]1O (relative stereo) [Compound 124, 16-methyl-16-phenoxy-2,5,6,7,18,19,20-heptanor-4,8-inter-m-phenylene PGI2]",,0.19,0.75,62,0.003,0.0013
"O=C(O)CCc1cccc2c1O[C@H]1C[C@@H](O)[C@H](/C=C/[C@@H](O)C3CCCCC3)[C@@H]21 (relative stereo) [Compound 60, 15-cyclohexyl-2,5,6,7,16,17,18,19,20-nonanor-4,8-inter-m-phenylene PGI2]",3.8,2.39,1.19,1.3,0.00679,0.00017
"CCCCC[C@H](O)/C=C/[C@H]1[C@H](O)CC(=O)[C@@H]1C/C=C\CCCC(=O)O [PGE2, reference compound]",,,,1,,
"CCOCC(C)(C)[C@H](O)/C=C/[C@@H]1[C@H]2c3cccc(CCC(=O)O)c3O[C@H]2C[C@H]1O (relative stereo) [Compound 108, 16,16-dimethyl-2,5,6,7-tetranor-18-oxa-4,8-inter-m-phenylene PGI2]",,2.02,> 10,7.0,0.0035,

# Further lines, with some results ahead:
IC50 [4] [ng/mL],SMILES,"ED50 [1, 6] [mg/kg]","ED50 [1, 7] [mg/kg]",Relative Effectiveness to PGE2 (gastric acid secretion inhibition) [2],ED50 [3] [mg/kg],ED (25 mmHg) [5] [mg/kg]
5.8,"CCCCC[C@H](O)/C=C/[C@@H]1[C@H]2c3cccc(CCC(=O)O)c3O[C@H]2C[C@H]1O (relative stereo) [Compound 42, 2,5,6,7-tetranor-4,8-inter-m-phenylene PGI2]",3.8,4.6,3.6,0.0486,0.00046
2.85,"O=C(O)CCc1cccc2c1O[C@H]1C[C@@H](O)[C@H](/C=C/[C@@H](O)c3ccccc3)[C@@H]21 (relative stereo) [Compound 71, 15-phenyl-2,5,6,7,16,17,18,19,20-nonanor-4,8-inter-m-phenylene PGI2]",0.034,0.045,7.1,0.0015,0.00026
3.2,"CCC[C@H](C)C[C@H](O)/C=C/[C@@H]1[C@H]2c3cccc(CCC(=O)O)c3O[C@H]2C[C@H]1O [Compound 54, 17-(S)-methyl-2,5,6,7-tetranor-4,8-inter-m-phenylene PGI2]",0.11,0.015,6.1,0.00086,0.00078
1000,"O=C(O)CCc1cccc2c1O[C@H]1C[C@@H](O)[C@H](/C=C/[C@@H](O)COc3ccccc3)[C@@H]21 (relative stereo) [Compound 120, 16-phenoxy-2,5,6,7,17,18,19,20-octanor-4,8-inter-m-phenylene PGI2]",0.11,0.3,54,0.00456,0.00051
